Source: patent US8747810B2, “Compositions and methods for imaging tissues, organs and tumors” (President and Fellows of Harvard College, priority 2009, dated 2014)
“And” between values parts separate entries of the source, which are not always exact repeats. Equal entries are not always repeated.

How the values were obtained:
B16F10 melanoma tumors = experiment: In vivo biodistribution of 99mTc complexes in C57B16 mice bearing B16F10 melanoma tumors; conditions: for mel/blood: melanoma/blood ratio; for mel/liver: melanoma/liver ratio; for mel/lung: melanoma/lung ratio; for mel/spleen: melanoma/spleen ratio
Method: To study the tumor uptake of ^99mTc complexes, ^99mTc-Z2-^99mTc-Z4, in vivo biodistribution experiment at 1, 3, 6 hours post intra-venous injection of the ^99mTc-complex were carried out in C57B16 mice bearing B16F10 melanoma tumors. The biodistribution data including melanoma/nontumor (M/NT) ratios for selected organs are summarized in Table 2 as percentage injected dose per gram (% ID/g) (Table 2). […] This is due to washout from no-tumor organs and increased retention in the tumor.

B16 melanoma nodules = experiment: In vivo biodistribution and tumor uptake of 99mTc complexes in C57B16 mice with B16 melanoma nodules; conditions: for mel/blood: melanoma/blood ratio; for mel/liver: melanoma/liver ratio; for mel/lung: melanoma/lung ratio; for mel/spleen: melanoma/spleen ratio
Method: The biodistribution data including melanoma/nontumor (M/NT) ratios for selected organs, summarized in Table 1 as percentage injected dose per gram (% ID/g)
To study the tumor uptake of radiolabeled metal complexes, in vivo, biodistribution experiments at 1 h after their administration were carried out in C57B16 male mice with palpable B16 melanoma nodules.

## O=C1C[S][99Tc-]23(=[O])[S]CC[N+]2(CCCN2CCCCC2)CC[N]13 (stereo not shown) [Tc-Z4]
B16F10 melanoma tumors; 1 h postinjection
  Eyes: 6.72 ± 0.77 % ID/g
  blood: 0.33 ± 0.03 % ID/g
  brain: 0.16 ± 0.01 % ID/g
  heart: 0.59 ± 0.07 % ID/g
  kidney: 2.50 ± 0.32 % ID/g
  liver: 20.32 ± 1.0 % ID/g
  lung: 2.37 ± 0.17 % ID/g
  melanoma (tumor uptake): 3.43 ± 0.70 % ID/g
  muscle: 0.63 ± 0.17 % ID/g
  spleen: 1.37 ± 0.19 % ID/g
  mel/blood: 10.50 ± 1.9
  mel/liver: 0.17 ± 0.03
  mel/lung: 1.45 ± 0.30
  mel/spleen: 2.49 ± 0.24
B16F10 melanoma tumors; 3 h postinjection
  Eyes: 7.19 ± 1.40 % ID/g
  blood: 0.34 ± 0.09 % ID/g
  brain: 0.18 ± 0.04 % ID/g
  heart: 0.63 ± 0.07 % ID/g
  kidney: 2.73 ± 0.76 % ID/g
  liver: 16.67 ± 3.8 % ID/g
  lung: 2.36 ± 0.54 % ID/g
  melanoma (tumor uptake): 3.59 ± 1.76 % ID/g
  muscle: 0.70 ± 0.52 % ID/g
  spleen: 1.22 ± 0.42 % ID/g
  mel/blood: 9.22 ± 4.93
  mel/liver: 0.15 ± 0.09
  mel/lung: 1.30 ± 0.67
  mel/spleen: 2.57 ± 1.21
B16F10 melanoma tumors; 6 h postinjection
  Eyes: 7.01 ± 0.41 % ID/g
  blood: 0.14 ± 0.03 % ID/g
  brain: 0.02 ± 0.01 % ID/g
  heart: 0.25 ± 0.06 % ID/g
  kidney: 1.07 ± 0.17 % ID/g
  liver: 12.9 ± 1.72 % ID/g
  lung: 0.91 ± 0.24 % ID/g
  melanoma (tumor uptake): 3.52 ± 0.88 % ID/g
  muscle: 0.09 ± 0.02 % ID/g
  spleen: 0.58 ± 0.20 % ID/g
  mel/blood: 24.95 ± 4.6
  mel/liver: 0.28 ± 0.08
  mel/lung: 3.99 ± 1.10
  mel/spleen: 6.44 ± 2.12

## CCN(CC)CC[N+]12CC[S][99Tc-]13(=[O])[S]CC[N]3C(=O)C2 (stereo not shown) [[TcOAADT]-C2—N(Et)2, [^99mTcOAADT]-(CH2)2—N(Et2), reference compound]
B16 melanoma nodules; 1 h postinjection
  blood: 1.00 ± 0.46 % ID/g
  brain: 0.30 ± 0.10 % ID/g
  heart: 0.82 ± 0.37 % ID/g
  kidney: 5.53 ± 0.81 % ID/g
  liver: 12.7 ± 1.54 % ID/g
  lung: 1.40 ± 0.49 % ID/g
  melanoma (tumor uptake): 7.62 ± 0.62 % ID/g
  muscle: 0.35 ± 0.21 % ID/g
  spleen: 1.83 ± 0.55 % ID/g
  mel/blood: 7.6 ± 0.54
  mel/liver: 0.6 ± 0.09
  mel/lung: 5.4 ± 0.60
  mel/spleen: 4.2 ± 0.58
B16 melanoma nodules; 6 h postinjection
  blood: 0.32 ± 0.19 % ID/g
  brain: 0.05 ± 0.02 % ID/g
  heart: 0.11 ± 0.02 % ID/g
  kidney: 1.98 ± 0.21 % ID/g
  liver: 4.08 ± 0.92 % ID/g
  lung: 0.47 ± 0.21 % ID/g
  melanoma (tumor uptake): 3.45 ± 1.2 % ID/g
  muscle: 0.08 ± 0.01 % ID/g
  spleen: 0.34 ± 0.10 % ID/g
  mel/blood: 10.8 ± 1.00
  mel/liver: 0.9 ± 0.35
  mel/lung: 7.3 ± 0.98
  mel/spleen: 10.1 ± 1.11
B16 melanoma nodules; over time
  tumor uptake and retention (in words): significant washout from the tumor over time

## CCN(CC)CC[N+]12CC[S][99Tc-]13(=[O])[S]CC(=O)[N]3CC2 (stereo not shown) [^99mTc-27, Iso-[^99mTcOAADT]-(CH2)2-NEt2)]
B16 melanoma nodules; 1 h postinjection
  Eyes: 15.42 ± 2.07 % ID/g
  blood: 1.05 ± 0.19 % ID/g
  brain: 0.24 ± 0.04 % ID/g
  heart: 1.34 ± 0.18 % ID/g
  kidney: 5.33 ± 1.10 % ID/g
  liver: 12.62 ± 1.80 % ID/g
  lung: 6.75 ± 0.57 % ID/g
  melanoma (tumor uptake): 9.61 % ID/g and 9.61 ± 1.02 % ID/g
  muscle: 0.94 ± 0.14 % ID/g
  spleen: 3.00 ± 1.45 % ID/g
  mel/blood: 14.71 and 14.71 ± 2.40
  mel/liver: 0.75 and 0.75 ± 0.11
  mel/lung: 1.43 and 1.43 ± 0.15
  mel/spleen: 3.65 and 3.65 ± 1.19
B16 melanoma nodules; 1 h postinjection, listed as Iso-[^99mTcOAADT]-(CH2)2-NEt2)
  melanoma (tumor uptake): 9.61 % ID/g
B16 melanoma nodules; 3 h after administration
  in vivo tumor uptake: 8.19 %ID/g
B16 melanoma nodules; 6 h after administration
  in vivo tumor uptake: 7.37 %ID/g
B16 melanoma nodules; 6 h postinjection
  Eyes: 11.09 ± 0.84 % ID/g
  blood: 0.25 ± 0.02 % ID/g
  brain: 0.05 ± 0.01 % ID/g
  heart: 0.18 ± 0.02 % ID/g
  kidney: 1.11 ± 0.13 % ID/g
  liver: 3.69 ± 0.48 % ID/g
  lung: 1.39 ± 0.41 % ID/g
  melanoma (tumor uptake): 7.05 % ID/g and 7.05 ± 1.23 % ID/g
  muscle: 0.07 ± 0.01 % ID/g
  spleen: 0.78 ± 0.85 % ID/g
  mel/blood: 47.25 and 47.25 ± 7.32
  mel/liver: 2.00 and 2.00 ± 0.23
  mel/lung: 5.87 and 5.87 ± 1.79
  mel/spleen: 13.99 and 13.99 ± 5.17
